Consider 8 molecules from ChEMBL document CHEMBL1201862, “PubChem BioAssay data set” (2004).

The structures appear in SMILES notation.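 Protocol summary: plate cells (96-well), add compound at 5 concentrations, incubate 48 h, interpolate endpoints linearly. Here, GI50 denotes the concentration required for 50% inhibition of growth.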 Calls of active or inactive are those of the source. No stated cut-off is given here; in the data, active = GI50 up to about 1.1 µM and inactive = higher.

One may read the GI50 as the concentration that inhibits growth by half.

Holding throughout (assay): DTP human tumour cell line panel, 48 h
In assay [1] the test system is NCI-H23.
The test system of assay [2] is Malme-3M.
Assay [3] relates to MOLT-4.
The subject of assay [4] is CCRF-CEM.
Assay [5] deals with LOX IMVI.
Assay [6] has as its system A498.
Assay [7] deals with NCI-H226.
Assay [8] concerns NCI-H460.
Assay [9] has as its system OVCAR-5.
In assay [10] the test system is RPMI-8226.
The test system of assay [11] is T47D.
Assay [12] relates to MDA-MB-435.
Assay [13] deals with SW-620.
The subject of assay [14] is K562.
In assay [15] the test system is ACHN.
Assay [16] concerns UO-31.
The subject of assay [17] is A549.
Assay [18] deals with SF-539.
Assay [19] concerns SNB-75.

In the case of `COc1ncnc2c1cnn2Cc1cn(CCCCO)nn1`, the GI50 in assay [1], in assay [2], in assay [3], in assay [4], in assay [5] and in assay [6] was > 100 µM (inactive) each time. Besides, the GI50 in assay [7], in assay [8], in [9], in [10], in [11] and in [12] was > 100 µM (inactive) each time. In addition, the GI50 in assay [13], in [14], in [15], in assay [16], in [17] and in assay [18] was > 100 µM (inactive) in each case.

On to `CN(C)C1(N(C)C)Oc2c(c(=O)n(C)c(=O)n2C)C(c2ccc(Br)cc2)C1(F)F` (configuration not stated), for which the GI50 in assay [1], in assay [3], in [4], in assay [5], in [6] and in assay [19] was > 100 µM (inactive) each time. Moreover, the GI50 in assay [7], in [8], in assay [9], in assay [10], in assay [11] and in assay [12] was > 100 µM (inactive) throughout. Also, the GI50 in assay [13], in [15], in [16] and in [17] was > 100 µM (inactive) each time.

For the molecule `Cn1nc2ccc3nccc(N4CCN(CCO)CC4)c3c2n1`, the GI50 is > 100 µM (inactive) in [1]; > 100 µM (inactive) in assay [2]; 31.7 µM (inactive) in assay [3]; 21.3 µM (inactive) in assay [4]; 0.371 µM (active) in [5]; > 100 µM (inactive) in [6]. In addition, the GI50 in assay [19] is > 100 µM (inactive); in [7] it was > 100 µM (inactive); in assay [8] it was > 100 µM (inactive); in assay [9], > 100 µM (inactive); in [11] it was 42.3 µM (inactive); in [12] it was > 100 µM (inactive). Besides, the GI50 in assay [13] is 59.4 µM (inactive); in [14], 58.6 µM (inactive); in assay [15], > 100 µM (inactive); in [16], > 100 µM (inactive); in assay [17], > 100 µM (inactive).

With `CC1Cc2cc(O)c(O)cc2-c2cc(O)c(O)cc2CC1C` (configuration not stated), the GI50 is 14.8 µM (inactive) in assay [1]; 5.62 µM (inactive) in assay [2]; 14 µM (inactive) in assay [3]; 14.1 µM (inactive) in assay [4]; 10.2 µM (inactive) in [5]; 25 µM (inactive) in assay [6]. The GI50 in [19] is > 100 µM (inactive); in [7], 24.3 µM (inactive); in assay [8] it was 20.4 µM (inactive); in assay [9], 18.9 µM (inactive); in [10], 32.4 µM (inactive); in assay [11], 25.2 µM (inactive). Besides, the GI50 in assay [12] was 3.16 µM (inactive); in assay [13], 20.5 µM (inactive); in assay [14], 12.8 µM (inactive); in [15], 24.6 µM (inactive); in assay [16], 25.3 µM (inactive); in assay [17], 31.6 µM (inactive). In addition, in [18], the GI50 is 5.85 µM (inactive).

Turning to `COc1cccc(/N=N/C(=N\NC(=O)c2ccc(C)cc2)c2ccc(N(CCC#N)CCC#N)cc2C)c1`, the GI50 in [1] is > 100 µM (inactive); in assay [2] it was > 100 µM (inactive); in [3], > 100 µM (inactive); in [5] it was > 100 µM (inactive); in assay [6], 44.3 µM (inactive); in [19], 53.1 µM (inactive). Also, the GI50 in [7] is > 100 µM (inactive); in assay [8] it was > 100 µM (inactive); in assay [9] it was > 100 µM (inactive); in assay [10], > 100 µM (inactive); in assay [11] it was 41.1 µM (inactive); in assay [12] it was 64.3 µM (inactive). Besides, the GI50 in assay [13] is > 100 µM (inactive); in [14], > 100 µM (inactive); in assay [15] it was > 100 µM (inactive); in assay [16], 59.8 µM (inactive); in [17], > 100 µM (inactive); in assay [18], > 100 µM (inactive).

In the case of `O=[N+]([O-])c1ccc2nc3ccccc3cc2c1`, the GI50 in assay [1] was 2.28 µM (inactive); in assay [2], 2.9 µM (inactive); in assay [3] it was < 0.01 µM (active); in assay [5], 2.04 µM (inactive); in [6], 1.5 µM (inactive); in assay [19], 3.7 µM (inactive). The GI50 in assay [7] was 2.45 µM (inactive); in assay [8] it was 3.03 µM (inactive); in assay [9], 2.48 µM (inactive); in [11], 3.63 µM (inactive); in assay [12], 1.46 µM (inactive); in [13], 1.85 µM (inactive). Also, the GI50 in assay [14] was 0.0782 µM (active); in [15], 3.04 µM (inactive); in [16] it was 3.4 µM (inactive); in assay [17] it was 2.5 µM (inactive); in [18], 2.1 µM (inactive).

Take `CC(NC(=O)OCc1ccccc1)NC(=O)C(CC(=O)OC(C)(C)C)NC(=O)OC(C)(C)C` (configuration not stated): the GI50 in assay [1], in assay [2], in assay [3], in assay [4], in assay [5] and in [6] was > 100 µM (inactive) in each case. For the same molecule, the GI50 in assay [19], in assay [7], in [8], in assay [9], in assay [10] and in assay [11] was > 100 µM (inactive) each time. Also, the GI50 in [12], in [13], in assay [14], in assay [15], in [16] and in assay [17] was > 100 µM (inactive) throughout. Besides, in assay [18], the GI50 is > 100 µM (inactive).

For the molecule `CCOC(=O)c1[nH]c2nc(SC)nc(NC)c2c1N`, the GI50 was > 100 µM (inactive) in assay [1]; > 100 µM (inactive) in [2]; 68.2 µM (inactive) in [3]; 60 µM (inactive) in assay [4]; 43.2 µM (inactive) in [5]; > 100 µM (inactive) in assay [6]. The GI50 in [19] was 70.5 µM (inactive); in assay [7], 42.8 µM (inactive); in assay [8], 60.4 µM (inactive); in assay [9] it was > 100 µM (inactive); in [10], 46 µM (inactive); in assay [11] it was 83.8 µM (inactive). Also, the GI50 is > 100 µM (inactive) in [12]; > 100 µM (inactive) in assay [13]; 90.2 µM (inactive) in [14]; > 100 µM (inactive) in assay [15]; > 100 µM (inactive) in assay [16]; > 100 µM (inactive) in assay [17].
